Laboratory results published in ChEMBL document CHEMBL1201862, “PubChem BioAssay data set” (2004).
Where “and” joins values, the source holds several entries; their conditions need not be identical. Equal entries are not always repeated.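 How tested: cells in 96-well plates exposed to compound for 48 hours at five concentrations. Abbreviation: GI50, concentration required for 50% inhibition of growth.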 Calls of active or inactive are those of the source. Rule as the data show it: active = GI50 up to about 1.1 µM and inactive = higher.

Tests used:
Test in all cases: NCI-60 cell line screen, 48 h
[1] = test system: A498
[2] = test system: A549
[3] = test system: HCC 2998
[4] = test system: HCT-116
[5] = test system: HCT-15
[6] = test system: HL-60
[7] = test system: HT-29
[8] = test system: IGROV-1
[9] = test system: K562
[10] = test system: NCI-H226
[11] = test system: NCI-H23
[12] = test system: RXF 393
[13] = test system: SF-295
[14] = test system: SF-539
[15] = test system: SK-MEL-5
[16] = test system: SN12C
[17] = test system: SNB-19
[18] = test system: SR
[19] = test system: UO-31

SMILES	GI50 [1]	GI50 [2]	GI50 [3]	GI50 [4]	GI50 [5]	GI50 [6]	GI50 [7]	GI50 [8]	GI50 [9]	GI50 [10]	GI50 [11]	GI50 [12]	GI50 [13]	GI50 [14]	GI50 [15]	GI50 [16]	GI50 [17]	GI50 [18]	GI50 [19]
O=C(OC(=C(c1ccccc1)c1ccccc1)N1CCCC1=S)C(c1ccccc1)c1ccccc1	8.63 µM (inactive)	4.67 µM (inactive)	9.44 µM (inactive)	4.12 µM (inactive)	4.13 µM	> 10 µM (inactive)	4.42 µM (inactive)	> 10 µM (inactive)	3.88 µM (inactive)	4.78 µM (inactive)	4.23 µM (inactive)	> 10 µM (inactive)	> 10 µM (inactive)	> 10 µM (inactive)	> 10 µM (inactive)	> 10 µM (inactive)	> 10 µM (inactive)	> 10 µM (inactive)	> 10 µM (inactive)
CC(C)N1CCN(c2ccncc2S(=O)(=O)N2CCCCC2)CC1	> 100 µM (inactive)	> 100 µM (inactive)	> 100 µM (inactive)	> 100 µM (inactive)	> 100 µM	> 100 µM (inactive)	> 100 µM (inactive)	> 100 µM (inactive)	> 100 µM (inactive)	> 100 µM (inactive)	> 100 µM (inactive)	> 100 µM (inactive)	> 100 µM (inactive)	> 100 µM (inactive)	> 100 µM (inactive)	> 100 µM (inactive)	> 100 µM (inactive)	> 100 µM (inactive)	> 100 µM (inactive)
Cc1ccc(S(=O)(=O)OC(COC(=O)c2ccccc2)C(OS(=O)(=O)c2ccc(C)cc2)C(OS(=O)(=O)c2ccc(C)cc2)C(COC(=O)c2ccccc2)OS(=O)(=O)c2ccc(C)cc2)cc1 (stereo unspecified)	> 100 µM (inactive)	> 100 µM (inactive)	> 100 µM (inactive)	> 100 µM (inactive)	> 100 µM	> 100 µM (inactive)	> 100 µM (inactive)	> 10 µM (inactive)	> 100 µM (inactive)		> 100 µM (inactive)	> 100 µM (inactive)	> 100 µM (inactive)	> 100 µM (inactive)	> 100 µM (inactive)	> 100 µM (inactive)	> 100 µM (inactive)	> 100 µM (inactive)	> 100 µM (inactive)
CCn1c(-c2ccc(C)cc2)cs/c1=N\C(P(=O)(O)O)P(=O)(O)O	> 100 µM (inactive)	> 100 µM (inactive)	> 100 µM (inactive)	> 100 µM (inactive)	> 100 µM	0.337 µM (active)	> 100 µM (inactive)	> 100 µM (inactive)	> 100 µM (inactive)	> 100 µM (inactive)	> 100 µM (inactive)	> 100 µM (inactive)	> 100 µM (inactive)	> 100 µM (inactive)	31.6 µM (inactive)		> 100 µM (inactive)	> 100 µM (inactive)	> 100 µM (inactive)
CCN(CC)CCO/N=C1\CC[C@H]2[C@@H]3CC=C4C[C@@H](O)CC[C@]4(C)[C@H]3CC[C@]12C	18.5 µM (inactive)		16.9 µM (inactive)	15.6 µM (inactive)	10.5 µM	9.77 µM (inactive)	3.67 µM (inactive)	31.8 µM (inactive)	7.98 µM (inactive)	15 µM (inactive)	16.2 µM (inactive)	17.5 µM (inactive)	19.5 µM (inactive)	13.6 µM (inactive)	12.1 µM (inactive)	45.6 µM (inactive)	31.4 µM (inactive)	5.31 µM (inactive)	15.8 µM (inactive)
N=C(c1ccc2ccccc2c1)c1ccccc1Cc1ccccc1	82.8 µM (inactive)	27.7 µM (inactive)	31.8 µM (inactive)	16.8 µM (inactive)	28.8 µM	27.5 µM (inactive)	16.4 µM (inactive)	35.9 µM (inactive)	29.9 µM (inactive)	28 µM (inactive)	41.7 µM (inactive)	5.97 µM (inactive)	32.2 µM (inactive)	41.5 µM (inactive)	37.2 µM (inactive)	34.8 µM (inactive)	> 100 µM (inactive)	19.9 µM (inactive)	33.4 µM (inactive)
CCOC(=O)/C=C(/C(=O)OCC)n1ccc(=O)n(CC(=O)OCC)c1=O	14.8 µM (inactive)	6.17 µM (inactive)	2.36 µM (inactive)	1.01 µM (active)	0.463 µM	0.143 µM (active)	1.58 µM (inactive)	1.61 µM (inactive)	0.348 µM (active)	2.22 µM (inactive)	1.78 µM (inactive)	1.15 µM (inactive)	14 µM (inactive)	2.96 µM (inactive)	2.36 µM (inactive)	1.1 µM (active)	10.8 µM (inactive)	1.35 µM (inactive)	1.63 µM (inactive)
[N-]=[N+]=CC(=O)OCCCCl	> 100 µM (inactive)		> 100 µM (inactive)	> 100 µM (inactive)	> 100 µM	> 100 µM (inactive)	> 100 µM (inactive)	> 100 µM (inactive)		> 100 µM (inactive)	> 100 µM (inactive)	> 100 µM (inactive)	> 100 µM (inactive)		> 100 µM (inactive)	> 100 µM (inactive)	> 100 µM (inactive)	4.25 µM (inactive)	> 100 µM (inactive)
C=C1C(=O)OC2CC1C(OC(C)=O)C/C(C)=C/CC/C(C)=C\CCC2(C)O (stereo unspecified)	5.22 µM (inactive) and 5.52 µM (inactive)	16 µM (inactive) and 17.2 µM (inactive)	7.69 µM (inactive) and 4.74 µM (inactive)	2.08 µM (inactive) and 2.91 µM (inactive)	1.56 µM and 3.04 µM	1.23 µM (inactive) and 655 nM (active)			1.39 µM (inactive) and 2.54 µM (inactive)			3.67 µM (inactive)	21.3 µM (inactive) and 17.2 µM (inactive)	3.48 µM (inactive) and 5.43 µM (inactive)		4.55 µM (inactive) and 3.09 µM (inactive)	17.3 µM (inactive) and 15.1 µM (inactive)	1.29 µM (inactive)	3.24 µM (inactive) and 6.12 µM (inactive)
Cc1n[nH]c(C(F)(F)F)c1/N=N/N(C)C	> 100 µM (inactive)	18.4 µM (inactive)	14 µM (inactive)	1.93 µM (inactive)	7.26 µM	12.6 µM (inactive)	4.98 µM (inactive)		2.93 µM (inactive)	1.95 µM (inactive)	5.73 µM (inactive)	13 µM (inactive)	12.1 µM (inactive)	5.28 µM (inactive)	> 100 µM (inactive)	12.5 µM (inactive)	15.1 µM (inactive)	4.47 µM (inactive)	1.61 µM (inactive)
COc1ccc2c(c1)CC1Cc3cc(OC)c(OC)cc3CN1CC2 (stereo unspecified)	28.6 µM (inactive)	42.4 µM (inactive)	33.4 µM (inactive)	23.5 µM (inactive)	44.7 µM	11.1 µM (inactive)	10.1 µM (inactive)	17.3 µM (inactive)	17.5 µM (inactive)	21.7 µM (inactive)	46.5 µM (inactive)	21 µM (inactive)	32.7 µM (inactive)		21.3 µM (inactive)		35.3 µM (inactive)	17.7 µM (inactive)	15.3 µM (inactive)
Nc1ccc(C(=O)Nn2c(-c3ccccc3)nc3ccccc3c2=O)cc1	32.3 µM (inactive)	> 100 µM (inactive)	> 100 µM (inactive)	> 100 µM (inactive)		> 100 µM (inactive)	> 100 µM (inactive)	> 100 µM (inactive)	> 100 µM (inactive)	> 100 µM (inactive)	> 100 µM (inactive)	> 100 µM (inactive)	> 100 µM (inactive)	> 100 µM (inactive)	> 100 µM (inactive)	> 100 µM (inactive)	> 100 µM (inactive)	> 100 µM (inactive)	> 100 µM (inactive)
CCc1nc(N)nc(N)c1-c1ccc(Cl)c(Cl)c1 [ETOPRINE]	> 100 µM (inactive)	0.789 µM (active)	12.4 µM (inactive)	0.574 µM (active)	3.75 µM	> 100 µM (inactive)	0.879 µM (active)	2.96 µM (inactive)			2.74 µM (inactive)	59.3 µM (inactive)	0.738 µM (active)	5.16 µM (inactive)	4.65 µM (inactive)	6.79 µM (inactive)	25.2 µM (inactive)	0.755 µM (active)	2.52 µM (inactive)
Clc1ccc(C2=C(c3ccccc3)C(c3ccc(Cl)cc3)N3C(=N[C@H]4CCCC[C@@H]43)N2)cc1 (stereo partly specified)	17.3 µM (inactive)	10.3 µM (inactive)	3.08 µM (inactive)	4.08 µM (inactive)	5.96 µM	3.19 µM (inactive)	3.27 µM (inactive)	12.9 µM (inactive)	2.3 µM (inactive)	21 µM (inactive)	14.2 µM (inactive)	13.9 µM (inactive)	11.6 µM (inactive)	15.3 µM (inactive)	12.3 µM (inactive)		14.5 µM (inactive)	2.09 µM (inactive)	13.6 µM (inactive)
CN(C(=O)Cc1cc(Cl)c(Cl)cc1NC(=O)CCCN)[C@H]1CCCC[C@@H]1N1CCCC1	17.3 µM (inactive)	29.5 µM (inactive)	16.6 µM (inactive)	29.9 µM (inactive)	> 100 µM	22.4 µM (inactive)	20.5 µM (inactive)	> 100 µM (inactive)	> 100 µM (inactive)	27 µM (inactive)	> 100 µM (inactive)	16.1 µM (inactive)	58.2 µM (inactive)		16.1 µM (inactive)	63.5 µM (inactive)	19.8 µM (inactive)	34.8 µM (inactive)	> 100 µM (inactive)
